Results reported in the CATMoS acute toxicity set (Mansouri et al. 2021).

Assay: GHS categories as the set defines them, by LD50: 1 up to 5, 2 up to 50, 3 up to 300, 4 up to 2000, 5 above 2000 mg/kg
Conditions: rat; in vivo; po
c1ccc2oc(C3(Cn4ccnc4)OCCO3)cc2c1 gave a GHS category of 4.
Work on CC(=O)O[C@]1(C(C)=O)CC[C@H]2[C@@H]3C[C@H](C)C4=CC(=O)CC[C@]4(C)[C@H]3CC[C@@]21C yielded a GHS category of 5.
OC1(c2cccs2)c2ccccc2C2=NCCN21 (centres undefined) gave a GHS category of 4.
In the case of Nc1ccc(-c2ccc(N)c3c2C(=O)c2ccccc2C3=O)c2c1C(=O)c1ccccc1C2=O, the GHS category is reported as 5.
Compound CCC/C=C/COC(C)=O has a GHS category of 5.
With COc1cc(OC)c2oc(C3(Cn4cncn4)OCCO3)cc2c1 the GHS category was 4.
In the case of COc1ccc2c(c1)CC[C@@H]1[C@@H]2CC[C@]2(C)C(=O)CC[C@@H]12, the GHS category is reported as 5.
CC(=O)OCCC(C)CCCC(C)C (centres undefined) gave a GHS category of 5.
For CC1OC(Cn2cncn2)(c2cc3ccccc3o2)OC1C (centres undefined), the GHS category was 4.
Work on CC1C(C)(C)C2CCc3cncnc3C2C1(C)C (centres undefined) yielded a GHS category of 4.
Compound O=C1CN2CCOC2(c2ccccc2F)c2cc(Cl)ccc2N1CCO (centres undefined) has a GHS category of 5.
With CN1OCC(=Cc2cc(C(C)(C)C)c(O)c(C(C)(C)C)c2)C1=O the GHS category was 4.
CC(=O)Nc1ccc(S(=O)(=O)Cl)cc1 gave a GHS category of 5.
CCSc1nc(N)c2c(C)coc2n1 gave a GHS category of 5.
CCCCCCCCCCCCOC(=O)CCSCCC(=O)OCCCCCCCCCCCC showed a GHS category of 5.
Compound COC(=O)c1cc(F)ccc1[N+](=O)[O-] has a GHS category of 5.
Compound C[C@]12CC[C@@H]3c4ccc(O)cc4CC[C@H]3[C@@H]1C[C@@H](O)[C@@H]2O has a GHS category of 5.
In the case of CC(O)(CC(=O)O)c1ccc(C2CCCCC2)c(Cl)c1 (centres undefined), the GHS category is reported as 4.
CCOCCOC(=O)C(=O)Nc1nc(-c2ccccc2)cs1 showed a GHS category of 5.
With CCOP(=O)(CC(=O)Nc1cc2c(Nc3ccc(F)c(Cl)c3)ncnc2cc1O[C@H]1CCOC1)OCC the GHS category was 5.
In the case of Cc1cc(C(C)(C)C)c(O)c(C)c1Cn1c(=O)n(Cc2c(C)cc(C(C)(C)C)c(O)c2C)c(=O)n(Cc2c(C)cc(C(C)(C)C)c(O)c2C)c1=O, the GHS category is reported as 5.
Compound CCSCCO has a GHS category of 5.
Work on Cn1c(=O)oc2cc(C(=O)c3ccccc3)ccc21 yielded a GHS category of 5.
COc1ccc(Cl)cc1N/C(=N/C1CCCCC1)c1cccc(C)c1 showed a GHS category of 4.
In the case of CCC1COC(Cn2cncn2)(c2cc3cc(Cl)ccc3o2)O1 (centres undefined), the GHS category is reported as 4.
CC(C)CCC[C@@H](C)[C@H]1CC[C@H]2[C@@H]3CC[C@H]4C[C@H](O)CC[C@]4(C)[C@H]3CC[C@]12C gave a GHS category of 4.
Work on C[C@@H]1C[C@@H](C)CC(C)(C)C1 yielded a GHS category of 5.
Nc1ccc2cc(S(=O)(=O)O)c(/N=N/c3ccc(-c4ccc(/N=N/c5ccc(O)c(C(=O)O)c5)cc4)cc3)c(O)c2c1 gave a GHS category of 5.
In the case of CCC(C)(O)CCCC(C)C (centres undefined), the GHS category is reported as 5.
Work on CCCC(=O)c1ccc(NC)c(O)c1 yielded a GHS category of 5.
OC1(c2ccccc2)c2c(Cl)cccc2C2=NCCN21 (centres undefined) showed a GHS category of 4.
O=C(CC1Sc2ccccc2NC1=O)Nc1cccc(Cl)c1 (centres undefined) showed a GHS category of 5.
With CON=CC1=CCCN(C(=O)Oc2ccc(C(C)C)cc2)C1 the GHS category was 4.
In the case of COC(C)CCO (centres undefined), the GHS category is reported as 5.
In the case of Cc1ccc(SCOC(Cn2ccnc2)c2ccc(Cl)cc2Cl)cc1 (centres undefined), the GHS category is reported as 5.
COC(=O)c1ccc(C(=O)O)cc1[N+](=O)[O-] showed a GHS category of 5.
CCCCC(CC)COC(=O)c1ccc([N+](=O)[O-])cc1 (centres undefined) gave a GHS category of 5.
O=C(O)c1cc(Br)nn1-c1ncccc1Cl showed a GHS category of 5.
OCC1C(CO)C2(Cl)C(Cl)=C(Cl)C1(Cl)C2(Cl)Cl (centres undefined) showed a GHS category of 5.
With CCOC(=O)C(=O)Nc1cc(SCCOC)ncn1 the GHS category was 4.
For CCCC(=O)OCC(C)C, the GHS category was 5.
With COc1cc([N+](=O)[O-])ccc1N=NC(C(C)=O)C(=O)Nc1ccccc1OC (centres undefined) the GHS category was 5.
Compound Cn1c2cc(C(F)(F)F)ccc2c2oc(C(=O)NCCCN3CCCCC3)cc21 has a GHS category of 4.
Work on CC(C)CC1(C)OCC(CO)O1 (centres undefined) yielded a GHS category of 5.
Compound C=CC(C)(CCC=C(C)C)OC (centres undefined) has a GHS category of 5.
Work on O=C1C[N+]([O-])=C(c2ccccc2)c2cc(Cl)ccc2N1 yielded a GHS category of 5.
With O=S(=O)(O)CCO the GHS category was 5.
C=CC1CCC(C2CCC(CCC)CC2)CC1 (centres undefined) showed a GHS category of 5.
With Nc1ncc(Br)cc1O the GHS category was 5.
Work on O=C(c1ccc(Cl)cc1)N1CCN=C1c1ccccc1 yielded a GHS category of 4.
With CC(C)CCCCCCOC(=O)C1CCCCC1C(=O)OCCCCCCC(C)C (centres undefined) the GHS category was 5.
In the case of CCCCCCCCCCCCCCCCOC(=O)C(CC)CCCC (centres undefined), the GHS category is reported as 5.
Work on COc1ccc2c(c1)CCN(c1ccccc1)C2c1ccccc1Cl (centres undefined) yielded a GHS category of 4.
In the case of CCC=CCCCCCCCCCCCCCCOCC, the GHS category is reported as 5.
With CCOC(=O)c1cc(=O)c2c(OCC(O)COc3cccc4oc(C(=O)OCC)cc(=O)c34)cccc2o1 the GHS category was 5.
O=S(O)c1ccc(Cl)cc1 gave a GHS category of 4.
Work on CC(C)(C)NC(=O)[C@@H]1CN(Cc2cccnc2)CCN1C[C@@H](O)C[C@@H](Cc1ccccc1)C(=O)N[C@H]1c2ccccc2C[C@H]1O yielded a GHS category of 5.
Compound FC(F)(Cl)C(F)(Cl)C(F)(Cl)C(F)(F)Cl (centres undefined) has a GHS category of 5.
Compound COC(=O)c1ccc(N2CCC(c3ccc(Cl)cc3)=N2)cc1 has a GHS category of 5.
Work on Cc1c(Cl)ccc(O)c1Cl yielded a GHS category of 5.
COC12C[C@@H](CO)CN(C)[C@@H]1Cc1cn(C(C)(C)C)c3cccc2c13 (some centres undefined) showed a GHS category of 4.
C[N+](C)(C)NCCC(=O)[O-] gave a GHS category of 5.
Work on CCOC(=O)C(F)C(C)=O (centres undefined) yielded a GHS category of 3.
CCOC(=O)C1CCC(C(=O)OCC)CC1 (centres undefined) showed a GHS category of 5.
CC(C)(C=O)CN1CCOCC1 gave a GHS category of 5.
CCCCCCCCCCCCCCCCBr gave a GHS category of 5.
C=CCCCCCCCCOC(C)=O showed a GHS category of 5.
Compound CCCCCCCCCl has a GHS category of 5.
COCCOCCOC(=O)C(=O)Nc1nc(-c2ccccc2)cs1 showed a GHS category of 5.
For O=C(c1ccc(Cl)cc1)n1ccnc1-c1ccccc1, the GHS category was 4.
In the case of CCCCCCOC(=O)C(C)(C)C, the GHS category is reported as 5.
Compound CCCOC(=O)c1ccc(O)cc1 has a GHS category of 5.
Compound CCCC(C)O (centres undefined) has a GHS category of 5.
For COC(=O)CC(N)=S, the GHS category was 4.
CN1C(C(=O)Nc2ccccn2)=C(OP2(=O)OCCCO2)c2sc(Cl)cc2S1(=O)=O gave a GHS category of 2.
OC[C@H]1O[C@@H](n2cnc3c(O)ncnc32)[C@H](O)[C@@H]1O showed a GHS category of 5.
Compound CCCCCCCCNC(C)C(O)c1ccc2c(c1)CCCS2 (centres undefined) has a GHS category of 5.
In the case of Clc1cc(Cl)ncn1, the GHS category is reported as 3.
Compound CCCc1c(Cc2ccc(-c3ccccc3-c3nn[nH]n3)cc2)c(OCCOC)nc2ncnn12 has a GHS category of 4.
CCCCCCCCCCCCCCCC(=O)OC[C@@H](O)[C@H]1OC[C@H](O)[C@H]1O gave a GHS category of 5.
NC(=O)Oc1ccc(Br)cc1C(=O)Oc1ccccc1 gave a GHS category of 5.
O=P(Oc1ccccc1)(Oc1ccccc1)Oc1cccc(OP(=O)(Oc2ccccc2)Oc2ccccc2)c1 showed a GHS category of 5.
CO[Si](CC(C)C)(OC)OC gave a GHS category of 5.
CN1CC(O)C2=C/C(=N/NC(N)=O)C(=O)C=C21 (centres undefined) gave a GHS category of 5.
For C=CC(=O)OCCCOCC(C)(C)COCCCOC(=O)C=C, the GHS category was 5.
With c1ccc2oc(-c3ccc(-c4nc5ccccc5o4)s3)nc2c1 the GHS category was 5.
With Cc1cccc2ncc(C(=O)NC3CCCC3)c(=O)n12 the GHS category was 3.
With CCCCCCCCCCBr the GHS category was 5.
CCOC(=O)CC(CC(C)=O)C(=O)OCC (centres undefined) showed a GHS category of 5.
With CC(C)(C)c1ccc(C2=C3C(=O)NC(c4ccc(C(C)(C)C)cc4)=C3C(=O)N2)cc1 the GHS category was 5.
For CCN(CC)CCC(C#N)(CC=C(C)C)c1cccc2ccccc12 (centres undefined), the GHS category was 4.
Compound COc1cc(CC2NCCc3cc(O)c(O)cc32)cc(OC)c1OC (centres undefined) has a GHS category of 5.
COc1cc(OC)nc(NC(=O)NS(=O)(=O)c2ncccc2C(F)(F)F)n1 gave a GHS category of 5.
In the case of CCCCCCCCC=CCCCCCCCC(=O)OCC(COC(=O)CCCCCCCC=CCCCCCCCC)(COC(=O)CCCCCCCC=CCCCCCCCC)COC(=O)CCCCCCCC=CCCCCCCCC (centres undefined), the GHS category is reported as 5.
For CC(C)C1(C)N=C(c2ncccc2C(=O)O)NC1=O (centres undefined), the GHS category was 5.
For NC1=NCC2c3ccccc3Cc3ccccc3N12 (centres undefined), the GHS category was 4.
Cc1ccc2oc(C=Cc3nc4cc(C)ccc4o3)nc2c1 showed a GHS category of 5.
CC12CCC3c4ccc(OC(=O)c5ccccc5)cc4CCC3C1CCC2OC(=O)COC(=O)CCCc1ccc(NCCCl)cc1 (centres undefined) showed a GHS category of 5.
For CC(=O)CCCC(C)CCC=C(C)C (centres undefined), the GHS category was 5.
With CCOC(=O)C1=C(C)NC(C)=C(C(=O)OCCN2C(=O)c3ccccc3S2(=O)=O)C1C (centres undefined) the GHS category was 5.
COc1ccc(C(=O)Nc2ccc(C(N)=O)cc2)cc1[N+](=O)[O-] showed a GHS category of 5.
For CC(=C(CCS(C)=O)SSC(CCS(C)=O)=C(C)N(C=O)Cc1cnc(C)nc1N)N(C=O)Cc1cnc(C)nc1N (centres undefined), the GHS category was 4.
Work on CC/C=C\CCOC(=O)Cc1ccccc1 yielded a GHS category of 5.
CC(=O)C(N=Nc1ccc(C(=O)Nc2ccc(C(N)=O)cc2)cc1)C(=O)Nc1ccc2[nH]c(=O)[nH]c2c1 (centres undefined) gave a GHS category of 5.
Compound CCCCOC(=O)CCC(C)=O has a GHS category of 5.
Work on Cc1ncc(CSSCc2cnc(C)c(O)c2CN)c(CN)c1O yielded a GHS category of 5.
Work on C=CCSc1nc(N)c2c(C)coc2n1 yielded a GHS category of 5.
CCCC(CCC)C(=O)Oc1ccccc1OC gave a GHS category of 5.
For CCCCOC(=O)Cc1ccccc1, the GHS category was 5.
In the case of CNC(=O)C(=NNc1cccc(Cl)c1)C(C)=O, the GHS category is reported as 5.
With O=C(O)C1CNC1 the GHS category was 5.
Work on O=C1CCC(N2C(=O)c3ccccc3C2=O)C(=O)N1CN1CCOCC1 (centres undefined) yielded a GHS category of 5.
Work on NC1=NC(=O)CC(=O)N1 yielded a GHS category of 5.
CCN(C(=O)CCCCSc1nnnn1C)C1CCCCC1 showed a GHS category of 4.
Compound COc1cc(O)c2c(=O)oc(CO)cc2c1 has a GHS category of 4.
FC(C(F)C(F)(F)C(F)(F)F)C(F)(F)F (centres undefined) showed a GHS category of 5.
Work on C=CCCCC(C)C yielded a GHS category of 5.
In the case of CCCCCCCC/C=C\CCCCCCCC(=O)N(CCCC)CCCC, the GHS category is reported as 5.
Compound O=C(O)CC(=O)C(=O)O has a GHS category of 5.
COc1ncc(F)c2nc(S(=O)(=O)Nc3c(F)cccc3F)nn12 showed a GHS category of 5.
With Cc1c(C)c2c(c(C)c1OC(=O)c1cccnc1)CC[C@@](C)(CCC[C@H](C)CCC[C@H](C)CCCC(C)C)O2 (racemic) the GHS category was 5.
Work on CC(=O)Oc1ccc(C(=C2CCCCC2)c2ccc(OC(C)=O)cc2)cc1 yielded a GHS category of 5.
Work on CC(C)c1ccc(C(C)C)cc1 yielded a GHS category of 5.
CCCCCCCOCC(COCCCCCCC)(COCCCCCCC)COCCCCCCC showed a GHS category of 5.
